Laboratory results: patent US8518882B2, “Methods and compositions for ameliorating or inhibiting decline in memory or intelligence or improving same” (priority 1998, dated 2013)

How the values were obtained:
gerbils = test: Working memory and reference memory assay in gerbils; type: in vivo; conditions: 0.1% UMP diet for four weeks
From the text: Groups of ten gerbils fed control or 0.1% UMP diet for four weeks and trained to successfully find all of the food pellets as described above were then given a modified test in which only two arms of the maze (but always the same two) contained food pellet rewards. In this test, a working memory error is one in which a gerbil revisits an arm from which it has already taken the pellet that day.

Aging rats = test: Morris water maze in aging rats on UMP diet; type: in vivo; conditions: 2.5% diet for six weeks
From the text: Aging rats (18 months, 500 g) were fed a control diet or a diet containing 2.5% UMP diets for six weeks. They were then shown a hidden platform in a six-foot diameter pool of water, placed somewhere in each of the four quadrants of the pool in turn, and were allowed 90 seconds in each trial to attempt to relocate the platform by swimming, and the swimming time “mean escape latency” recorded. The set of four trials was repeated on each of four consecutive days. The platform was in the same place each day. This test, known as the Morris water maze, is an indicator of spatial memory.

neurofilament-70 (NF-70) = test: Western blot of NF-70 in striatum of aged rats on UMP diet; type: in vivo
Protocol: (§1) Data were represented according to UMP treatment of six to sixteen measurements each group (means±S.E.M.). One-way ANOVA with Turkey's HSD post hoc tests were used to compare the difference among the treatments the Newman-Keuls multiple range test was used for the data in FIG. 13.
(§2) Striatal tissues were placed in Eppendorf tubes containing 200 μl lysis buffer (60 mM Tris-HCl, 4% SDS, 20% glycerol, 1 mM dithiothreitol, 1 mM AEBSF, 8 μM aprotinin, 500 μM bestatin, 15 μM E64, 200 μM leupeptin, 10 μM pepstatin A). The samples were sonicated, boiled (10 min), and centrifuged (14,000 g for 1 min at room temperature) The supernatant fluid was transferred to a clean tube, and total protein content was determined using the Bicinchoninic Acid assay (Sigma, St. Louis, Mo.).
(§3) Equal amounts of protein (40 μg protein/lane) were loaded for sodium dodecyl sulfate-polyacrylamide gel electrophoresis (4-15% SDS PAGE; Bio-Rad, Hercules, Calif.). Prior to gel electrophoresis, bromphenol blue solution (0.07%) was added to each sample. Proteins were separated, transferred onto polyvinylidene difluoride (PVDF) membranes (Immobilon-P, Millipore), and blocked with 5% bovine serum albumin (Tris-buffered saline/0.15% Tween 20) for 1 h. After 3 10 min rinses in Tris-buffered saline (TBST), blots were incubated in TBST with various antibodies against the proteins of interest, including NF-70, NF-M (1: 2000, 1: 5000, respectively; Calbiochem, La Jolla, Calif.) at 4° C. overnight on an orbital shaker. […] Films were digitized using a Supervista S-12 scanner with a transparency adapter (UMAX Technologies, Freemont, Calif.). Analysis was performed using the public domain NIH Image program (NIH V.1.61).

[1] = test system: acetylcholine release from neurons in the corpus striatum; test: Basal acetylcholine release in corpus striatum of rats on dietary UMP; type: in vivo
neurofilament-M (NF-M) = test: Western blot of NF-M in striatum of aged rats on UMP diet; type: in vivo
Protocol: as §1, §2, §3

[2] = Body weight of aged rats on UMP diet; conditions: 2.5% UMP·2Na+ diet, 0-6 weeks
From the text: Male middle aged Fischer 344 rats, 22-24 months old at the time of doing microdialysis, were obtained from National Institute on Aging (Harlan Sprague-Dawley, Indianapolis, Ind.). Rats were housed individually under standard husbandry conditions and exposed to 12 hr light/dark cycle with food and water provided ad libitum.
Rats were acclimated to the animal facility for more than 7 days before fed a control laboratory diet (Teklad Global 16% protein rodent diet, TD.00217, Harlan Telclad, Madison, Wis.), or this diet fortified with UMP·2Na^+ (2.5%, TD.03398, UMP·2Na^+; Numico Research, the Netherlands) for 6 weeks.
Rats were not fed with the research diet until at least 7 days later after their arrival. They were weighed at the time of beginning feeding (t=0), as well as 1, 2, 4, 6 weeks later. At time 0, rats were randomly assigned into two groups.

SMILES: O=c1ccn([C@@H]2O[C@H](COP(=O)([O-])[O-])[C@@H](O)[C@H]2O)c(=O)[nH]1.[Na+].[Na+] [UMP, uridine-5′-monophosphate disodium]
- Reference memory errors (gerbils): reduced numbers
- Working memory errors (gerbils): reduced numbers
- Time required to reach the platform (mean escape latency) (Aging rats): statistically significant reduction in the time required to reach the location of the platform
- NF-70 level compared to control group (neurofilament-70 (NF-70); UMP diet 1 week): did not increase
- NF-70 level, of control values (neurofilament-70 (NF-70); UMP diet 6 weeks, striatum, p<0.05): 182±25%
- NF-70 level in striatum, of control values (second statement) (neurofilament-70 (NF-70); feeding time not given): 204±36%
- Basal release of acetylcholine in corpus striatum [1]: increase the basal release
- NF-M level compared to control group (neurofilament-M (NF-M); UMP diet 1 week): did not increase
- NF-M level, of control values (neurofilament-M (NF-M); UMP diet 6 weeks, striatum, p<0.01): 221±34%
- NF-M level in striatum, of control values (second statement) (neurofilament-M (NF-M); feeding time not given): 221±34%
- Body weight [2]: neither UMP-diet (vs. control) nor UMP time interaction affected body weight
